In one data set the test system is P. falciparum NF54. Briefly: In vitro microplate assay against P. falciparum NF54 (3H-hypoxanthine incorporation). Type of data set: cell-based, Plasmodium falciparum. The settings on record: for S.I. = IC50 (Cyt.)/IC50 (PfNF54): L-6 cells IC50 / PfNF54 IC50; for pIC50: average of four determinations, read-out: PfNF54 IC50. As to the method:
(§1) All newly prepared compounds were tested for their in vitro activity against the chloroquine sensitive strain NF54 of P. falciparum. Cytotoxicity was determined using L-6 cells (rat skeletal myofibroblasts). Chloroquine and podophyllotoxin were used as standards.
The in vitro activity of compounds against erythrocytic stages of the drug sensitive NF54 strain of P. falciparum […] was determined using a ^3H-hypoxanthine incorporation assay. Compounds were dissolved in DMSO at 10 mg/mL and further diluted in medium before adding to parasite cultures that were incubated in RPMI 1640 medium without hypoxanthine, supplemented with HEPES (5.94 g/L), NaHCO3 (2.1 g/L), neomycin (100 U/mL), AlbumaxR (5 g/L) and washed human red blood cells A+ at 2.5% haematocrit (0.3% parasitaemia). Serial drug dilutions of eleven 3-fold dilutions steps covering a range from 100 to 0.002 µg/mL were prepared. The 96-well plates were incubated in a humidified atmosphere at 37 °C; 4% CO2, 3% O2, 93% N2. After 48 h of incubation time, 0.05 mL of ^3H-hypoxanthine (=0.5 µCi) was added to each well of the plate. The plates were incubated for further 24 h under the same conditions. Plates were then harvested using a Betaplate^TM cell harvester (Wallac, Zurich, Switzerland). Red blood cells were transferred onto a glass fiber filter and then washed with distilled water. The dried filters were inserted into a plastic foil with 10 mL of scintillation fluid and counted in a Betaplate^TM liquid scintillation counter (Wallac, Zurich, Switzerland). IC50 values were calculated from sigmoidal inhibition curves by linear regression using Microsoft Excel. Chloroquine (Sigma C6628) was used as control.

Data set [1] can be described thus: Parallel artificial membrane permeability assay (PAMPA). As to conditions: for Papp at 5 h, 200 µM: pH 7.4, Pe. As to the method:
The parallel artificial membrane permeability assay (PAMPA) is a fast and easy high-throughput assay to determine passive permeability of compounds through semi-permeable membranes (for example the blood-brain-barrier) without the influence of efflux pumps or transporter molecules.
With the high-throughput PAMPA the newly synthesized compounds were tested for their passive permeability through cell membranes without the influence of efflux pumps or transporter proteins. The assay was performed using a Corning® Gentest^TM Pre-coated PAMPA Plate System with 96-well polystyrene plates. The bottom of the acceptor plate consists of a porous membrane, whereby the pores are lined with a lipid-oil-lipid triple layer. Stock solutions of each test compound at 10 mM were prepared in DMSO or methanol and diluted with phosphate-buffered saline (PBS at a pH of 7.4) to a final concentration of 200 µM. […] The donor plate (bottom plate) was filled with the compound solutions, whereby all compounds were tested in quadruplicates. Each well of the acceptor plate (top plate) was filled with PBS buffer. Donor and acceptor plates were combined and incubated at room temperature for 5 h. After that, the plates were separated and 150 µL of each well of both plates were transferred to 96-well UV plates (Greiner Bio-One). Absorption at different wavelengths covering a range from 200 to 300 nm was measured using a SpectraMax M3 UV plate reader. […] The plates were analyzed at the wavelength where the R^2 value of the calibration curve was higher than 0.99 [41]. […] (2) cequ=[cD(t)∗VD+cA(t)∗VA]/(VD+VA) where: • VD—donor well volume (0.3 mL); • VA—acceptor well volume (0.2 mL); • cA(t)—acceptor well compound concentration at time t; • cD(t)—donor well compound concentration at time t.
Recovery of compounds from donor and acceptor wells (mass retention) was calculated as shown in the equation below. Data were only accepted when recovery exceeded 70%. (3) R=1−[cD(t)∗VD+cA(t)∗VA]/(c0∗VD) where: • R—mass retention (%); • VD—donor well volume (0.3 mL); • VA—acceptor well volume (0.2 mL); • cA(t)—acceptor well compound concentration at time t; • cD(t)—donor well compound concentration at time t; • c0—initial donor well compound concentration (200 µM).
In general terms: PAMPA measures passive passage across an artificial lipid membrane.

A short description of a further data set: in vitro. As to conditions: rat. As to the method: as §1
The cytotoxicity assays were performed using 96-well microtiter plates, each well containing 4000 L-6 cells (a primary cell line derived from rat skeletal myofibroblasts, ATCC CRL-1458^TM) in 0.1 mL of RPMI 1640 medium supplemented with 1% glutamine (200 mM) and 10% fetal bovine serum. Serial drug dilutions of eleven 3-fold dilution steps covering a range from 100 to 0.002 µg/mL were prepared. After 70 h of incubation, the plates were inspected under an inverted microscope to assure growth of the controls and sterile conditions. Then, 0.01 mL resazurin solution (resazurin, 12.5 mg in 100 mL double-distilled water) was added to each well and the plates were incubated for another 2 h. The plates were read with a Spectramax Gemini XS microplate fluorometer (Molecular Devices Cooperation, Sunnyvale, CA, USA) using an excitation wavelength of 536 nm and an emission wavelength of 588 nm. IC50 values were calculated by linear regression from the sigmoidal dose inhibition curves using SoftmaxPro software (Molecular Devices Cooperation, Sunnyvale, CA, USA). Podophyllotoxin (Sigma P4405) was used as control.

Where [2] appears, read: PAMPA, PBS pH 7.4, 200 µM, 5 h, room temperature.
[3] abbreviates: Plasmodium falciparum, NF54, chloroquine sensitive strain NF54, erythrocytic stages.
Setting [4] is: chloroquine sensitive strain NF54, erythrocytic stages.

pIC50: −log10 of the molar value. Where two headings read alike, the source gives them in different places.

For `CCN(CC)CCCC(C)Nc1ccnc2cc(Cl)ccc12` (centres unmarked) [CQ, chloroquine, reference compound], in the data set on P. falciparum NF54, the “S.I. = IC50 (Cyt.)/IC50 (PfNF54)” value came out at 9672.
On to `Cn1c(=O)c2c(ncn2C)n(C)c1=O` [Caffeine, reference compound], for which the values for the Pe in data set [1] (PAMPA standards) and in data set [1] (setting [2]) were 80 nm/s and 8.00 10^−6 cm/s, respectively.
What is called IC50 is the midpoint of a concentration-inhibition curve. Broadly, the Papp is the rate of passage across a membrane or cell layer, normalised by area and donor concentration. A lower Papp goes with slow passage. The term pIC50 denotes the IC50 on a negative log10 scale, so that one unit is a factor of ten. Compound `CC(C)(C)OC(=O)N1CCN(c2ccccc2NC(=O)c2cccc([N+](=O)[O-])c2Oc2ccc(F)cc2)CC1` [Compound 28, tert-Butyl 4-{2-[2-(4-fluorophenoxy)-3-nitrobenzamido]phenyl}piperazine-1-carboxylate] had an IC50 at 72 h in the data set “in vitro” of 90.4 µM. The compound also yielded a Papp at 5 h, 200 µM in data set [1] (setting [2]) of 1.68 ×10⁻⁶ cm/s. Also, the pIC50 in the data set with P. falciparum NF54 (setting [3]) was 6.23.
In the data set “in vitro”, `CC(C)(C)OC(=O)N1CCN(c2ccccc2NC(=O)c2cccc(C(F)(F)F)c2Sc2ccc(F)cc2)CC1` [Compound 29, tert-Butyl 4-(2-{2-[(4-fluorophenyl)sulfanyl]-3-(trifluoromethyl)benz-amido}phenyl) piperazine-1-carboxylate] gave an IC50 at 72 h of 166 µM. For the same compound, in data set [1] (setting [2]), the Pe was 3.77 10^−6 cm/s and the apparent permeability (Papp) at 5 h, 200 µM was 4.31 ×10⁻⁶ cm/s. Besides, the “S.I. = IC50 (Cyt.)/IC50 (PfNF54)” value in the data set on P. falciparum NF54 was found to be 850.5. Further, the pIC50 with P. falciparum NF54 (setting [3]) was 6.71.
In “in vitro”, `CC(C)(C)OC(=O)N1CCN(c2ccccc2NC(=O)c2ccccc2Oc2ccccc2)CC1` [Compound 30, tert-Butyl 4-[2-(2-phenoxybenzamido)phenyl]piperazin-1-carboxylate] yielded an IC50 at 72 h of 22.5 µM. The compound further displayed a Papp at 5 h, 200 µM in data set [1] (setting [2]) of 8.52 ×10⁻⁶ cm/s. In the data set with P. falciparum NF54, the “S.I. = IC50 (Cyt.)/IC50 (PfNF54)” value is on record as 19.87. In addition, the negative logarithm of the IC50 (pIC50) in the data set on P. falciparum NF54 (setting [3]) is 5.95.
Turning to `CC(C)(C)OC(=O)N1CCN(c2ccccc2NC(=O)c2cccc(C(F)(F)F)c2Nc2ccccc2)CC1` [Compound 31, tert-Butyl 4-{2-[2-anilino-3-(trifluoromethyl)benzamido]phenyl}piperazin-1-carboxylate], inhibition in the data set “in vitro” was half-maximal at 129 µM (IC50 at 72 h). Further, in data set [1] (setting [2]), the apparent permeability coefficient (Papp) at 5 h, 200 µM is 0.65 ×10⁻⁶ cm/s. The values for the negative logarithm of the IC50 (pIC50) in the data set on P. falciparum NF54 (setting [3]) and in the data set on P. falciparum NF54 (setting [4]) were 6.20 to 6.21 and 6.21, respectively.
The corresponding values for `CC(C)(C)OC(=O)N1CCN(c2ccccc2NC(=O)c2cccc(C(F)(F)F)c2Nc2ccc(F)cc2)CC1` [Compound 32, tert-Butyl 4-{2-[2-(4-fluoroanilino)-3-(trifluoromethyl)benzamido]phenyl}piperazin-1-carboxylate] are 123 µM, 0.57 ×10⁻⁶ cm/s, 6.20 to 6.21 and 6.20.
In “in vitro”, `CC(C)(C)C(=O)N1CCN(c2ccccc2NC(=O)c2cccc([N+](=O)[O-])c2Oc2ccc(F)cc2)CC1` [Compound 34, N-{2-[4-(2,2-Dimethylpropanoyl)piperazin-1-yl]phenyl}-2-(4-fluorophenoxy)-3-nitrobenzamid] registered an IC50 at 72 h of 114 µM. This compound also came in with an apparent permeability (Papp) at 5 h, 200 µM in data set [1] (setting [2]) of 6.92 ×10⁻⁶ cm/s. For the same compound, in the data set with P. falciparum NF54 (setting [3]), the pIC50 was 5.58.
The compound `CC(C)(C)C(=O)N1CCN(c2ccccc2NC(=O)c2cccc(F)c2Oc2ccc(F)cc2)CC1` [Compound 35, N-{2-[4-(2,2-Dimethylpropanoyl)piperazin-1-yl]phenyl}-3-fluoro-2-(4-fluorophenoxy)benzamid] returned an IC50 at 72 h in “in vitro” of 15.6 µM. The Pe in data set [1] (setting [2]) is 0.00 10^−6 cm/s. Besides, the pIC50 with P. falciparum NF54 (setting [3]) is 5.67.
On to `CC(C)(C)OC(=O)N1CCN(c2ccc(NC(=O)c3ccccc3Oc3ccc(F)cc3)cc2)CC1` [Compound 36, tert-Butyl 4-{4-[2-(4-fluorophenoxy)benzamido]phenyl}piperazine-1-carboxylate], for which the midpoint of inhibition in “in vitro”, the IC50 at 72 h, lay at 203 µM. This compound also yielded a Papp at 5 h, 200 µM in data set [1] (setting [2]) of 2.84 ×10⁻⁶ cm/s. Moreover, the pIC50 with P. falciparum NF54 (setting [3]) is 5.47.
The like results for `CC(C)(C)OC(=O)N1CCN(c2ccc(NC(=O)c3cccc(F)c3Oc3ccc(F)cc3)cc2)CC1` [Compound 37, tert-Butyl 4-{4-[3-fluoro-2-(4-fluorophenoxy)benzamido]phenyl}piperazine-1-carb-oxylate] were, in that order, 35.3 µM, 0.7 ×10⁻⁶ cm/s and 5.39.
In the case of `CC(C)(C)OC(=O)N1CCN(c2ccc(NC(=O)c3cccc([N+](=O)[O-])c3Oc3ccc(F)cc3)cc2)CC1` [Compound 38, tert-Butyl 4-{4-[2-(4-fluorophenoxy)-3-nitrobenzamido]phenyl}piperazine-1-carb-oxylate], the midpoint of inhibition in “in vitro”, the IC50 at 72 h, lay at 70.8 µM. Further, in data set [1] (setting [2]), the apparent permeability (Papp) at 5 h, 200 µM is 1.53 ×10⁻⁶ cm/s. For the same compound, the pIC50 in the data set on P. falciparum NF54 (setting [3]) was 5.84.
In turn, `CC(C)(C)OC(=O)N1CCN(c2ccc(NC(=O)c3cccc(C(F)(F)F)c3Sc3ccc(F)cc3)cc2)CC1` [Compound 39, tert-Butyl 4-(4-{2-[(4-fluorophenyl)sulfanyl]-3-(trifluoromethyl)benzamido}phenyl) piperazine-1-carboxylate] yielded an IC50 at 72 h in “in vitro” of 31.8 µM. In addition, in data set [1] (setting [2]), the Pe is listed as 4.31 10^−6 cm/s and the Papp at 5 h, 200 µM came to 3.77 ×10⁻⁶ cm/s. Further, the “S.I. = IC50 (Cyt.)/IC50 (PfNF54)” value in the data set on P. falciparum NF54 is 212.8. For the same compound, the pIC50 in the data set on P. falciparum NF54 (setting [3]) is 6.83.
`CC(C)(C)OC(=O)N1CCN(c2ccc(NC(=O)c3ccccc3Oc3ccccc3)cc2)CC1` [Compound 40, tert-Butyl 4-[4-(2-phenoxybenzamido)phenyl]piperazin-1-carboxylate] registered an IC50 at 72 h in “in vitro” of 98.3 µM. The Papp at 5 h, 200 µM in data set [1] (setting [2]) is 5.57 ×10⁻⁶ cm/s. The “S.I. = IC50 (Cyt.)/IC50 (PfNF54)” value in the data set on P. falciparum NF54 is reported as 31.78. The pIC50 in the data set with P. falciparum NF54 (setting [3]) is 5.51.
As for `CC(C)(C)OC(=O)N1CCN(c2ccc(NC(=O)c3cccc(C(F)(F)F)c3Nc3ccccc3)cc2)CC1` [Compound 41, tert-Butyl 4-{4-[2-anilino-3-(trifluoromethyl)benzamido]phenyl}piperazin-1-carboxylate], in the data set “in vitro”, inhibition was half-maximal at 33.8 µM (IC50 at 72 h). Also, the Papp at 5 h, 200 µM in data set [1] (setting [2]) was 1.32 ×10⁻⁶ cm/s. Moreover, the negative-log IC50 (pIC50) in the data set on P. falciparum NF54 (setting [3]) was 6.20 to 6.27; in the data set on P. falciparum NF54 (setting [4]), 6.20.
The like results for `CC(C)(C)OC(=O)N1CCN(c2ccc(NC(=O)c3cccc(C(F)(F)F)c3Nc3ccc(F)cc3)cc2)CC1` [Compound 42] were, in that order, 94.2 µM, 0.2 ×10⁻⁶ cm/s, 6.20 to 6.27 and 6.27.
The compound `CC(C)(C)C(=O)N1CCN(c2ccc(NC(=O)c3ccccc3Oc3ccc(F)cc3)cc2)CC1` [Compound 43, N-{4-[4-(2,2-Dimethylpropanoyl)piperazin-1-yl]phenyl}-2-(4-fluorophenoxy)benzamid] had an IC50 at 72 h in “in vitro” of 184 µM. In data set [1] (setting [2]), this compound came in with an apparent permeability (Papp) at 5 h, 200 µM of 0.02 ×10⁻⁶ cm/s. For the same compound, the negative logarithm of the IC50 (pIC50) in the data set on P. falciparum NF54 (setting [3]) was 5.25.
`NS(=O)(=O)c1cc2c(cc1Cl)NCNS2(=O)=O` [Hydrochlorothiazide, reference compound] registered a Pe in data set [1] (PAMPA standards) of 0.9 nm/s.

These data come from paper PMC9783227, “New Derivatives of the Multi-Stage Active Malaria Box Compound MMV030666 and Their Antiplasmodial Potencies” (Pharmaceuticals, 2022).
